Holding throughout (test): Dundee protein kinase screen
Common to all, as to format: biochemical

Assay [1] concerns the target T1, CHK1 (Homo sapiens, UniProt O14757).
T1 sequence (O14757 1-476): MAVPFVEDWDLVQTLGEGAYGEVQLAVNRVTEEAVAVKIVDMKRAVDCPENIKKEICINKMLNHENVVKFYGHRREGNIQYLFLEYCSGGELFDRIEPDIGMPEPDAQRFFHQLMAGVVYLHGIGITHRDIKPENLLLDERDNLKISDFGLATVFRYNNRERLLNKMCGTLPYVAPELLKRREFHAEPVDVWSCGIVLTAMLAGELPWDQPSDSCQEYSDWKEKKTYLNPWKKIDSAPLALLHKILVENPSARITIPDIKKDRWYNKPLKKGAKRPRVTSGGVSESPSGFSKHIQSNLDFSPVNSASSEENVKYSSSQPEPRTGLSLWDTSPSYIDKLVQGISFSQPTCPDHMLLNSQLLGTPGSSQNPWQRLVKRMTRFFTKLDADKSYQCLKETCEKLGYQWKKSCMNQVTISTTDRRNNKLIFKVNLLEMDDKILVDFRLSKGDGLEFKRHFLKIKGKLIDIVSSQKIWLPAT
Particulars: CHK1, 1µM; read-out: %Remaining activity at 1µM NU6300. Here is the method: (§1) Prior to determining its cellular activity, we carried out a screen to assess its selectivity against a panel of 131 protein kinases under conditions that would not distinguish between a reversible or irreversible mode of action. […] These 13 kinases and 29 additional kinases, selected for their known sensitivity to other inhibitors within the purine series, were then tested in a modified screening format in which the assay was repeated following a 4-hr pre-incubation (Table S3B). […] However, conformational flexibility around the active site may promote such an interaction with a residue from another part of the structure ([Martin et al., 2012]).
(§2) Table S3, Related to Figure 4. NCL-0006300 protein kinase selectivity. (A) NU6300 was tested at a single concentration of 1µM against 131 protein kinases present in a Dundee protein kinase screen (Bain et al., 2007). Values given are % activity remaining and are the average of duplicate measurements: 0-25% (red), 26-50% (yellow), 51-80% (black) and above 81% (green). The kinase domain sequences (as defined by UniProt) of […]
(§3) have a lysine residue at a position close to CDK2 Lys88 or Lys89. However, in the structure of tyrosine-protein kinase BTK (PDB ID: 3GEN) the residue equivalent to CDK2 Asp86 is Cys481 and therefore there is the potential for a covalent adduct to be formed through this side chain. […]

For assay [2], the target named is EIF2AK3 (Homo sapiens, UniProt Q9NZJ5). To be noted: EIF2AK3, 1µM; read-out: %Remaining activity at 1µM NU6300. Here is the method: as §1, §2, §3
Assay [3] deals with EPH-A2 (Homo sapiens, UniProt P29317). Particulars: EPH-A2, 1µM; read-out: %Remaining activity at 1µM NU6300. Here is the method: as §1, §2, §3
Assay [4] addresses CAMK1 (Homo sapiens, UniProt Q14012). Particulars: CAMK1, 1µM; read-out: %Remaining activity at 1µM NU6300. Here is the method:
as §1, §2, §3

For assay [5], the target named is T2, Aurora A (Homo sapiens, UniProt O14965).
T2 sequence (O14965 1-403): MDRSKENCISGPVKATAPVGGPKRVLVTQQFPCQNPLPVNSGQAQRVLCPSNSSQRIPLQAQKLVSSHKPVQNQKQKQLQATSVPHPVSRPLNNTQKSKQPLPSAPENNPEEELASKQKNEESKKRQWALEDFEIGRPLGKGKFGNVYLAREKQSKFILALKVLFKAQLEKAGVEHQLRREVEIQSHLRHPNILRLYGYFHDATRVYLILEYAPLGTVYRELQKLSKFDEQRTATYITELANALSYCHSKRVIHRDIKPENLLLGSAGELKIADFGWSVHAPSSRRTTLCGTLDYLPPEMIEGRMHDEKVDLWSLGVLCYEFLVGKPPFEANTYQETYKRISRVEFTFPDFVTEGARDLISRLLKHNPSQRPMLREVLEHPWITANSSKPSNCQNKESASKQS
Particulars: read-out: %Remaining activity at 1µM NU6300. Here is the method: as §1, §2, §3

The target in assay [6] is MARK1 (Homo sapiens, UniProt Q9P0L2). To be noted: MARK1, 1µM; read-out: %Remaining activity at 1µM NU6300. Here is the method:
as §1, §2, §3

For assay [7], the target named is JNK3 (Homo sapiens, UniProt P53779). To be noted: JNK3, 1µM; read-out: %Remaining activity at 1µM NU6300. Here is the method:
as §1, §2, §3

Assay [8] addresses CK1δ (Homo sapiens, UniProt P48730). To be noted: read-out: %Remaining activity at 1µM NU6300. Here is the method: as §1, §2, §3
In assay [9] the target is HIPK3 (Homo sapiens, UniProt Q9H422). To be noted: HIPK3, 1µM; read-out: %Remaining activity at 1µM NU6300. Here is the method: as §1, §2, §3
Assay [10] has as its target LKB1 (Homo sapiens, UniProt Q15831). To be noted: LKB1, 1µM; read-out: %Remaining activity at 1µM NU6300. Here is the method:
as §1, §2, §3

Assay [11] concerns the target JNK1 (Homo sapiens, UniProt P45983). To be noted: JNK1, 1µM; read-out: %Remaining activity at 1µM NU6300. Here is the method: as §1, §2, §3
Assay [12] addresses DYRK2 (Homo sapiens, UniProt Q92630). Particulars: DYRK2, 1µM; read-out: %Remaining activity at 1µM NU6300. Here is the method: as §1, §2, §3

In general, remaining activity refers to what remains of the control signal, in per cent.

Sequence of DYRK2 (Q92630 whole entry): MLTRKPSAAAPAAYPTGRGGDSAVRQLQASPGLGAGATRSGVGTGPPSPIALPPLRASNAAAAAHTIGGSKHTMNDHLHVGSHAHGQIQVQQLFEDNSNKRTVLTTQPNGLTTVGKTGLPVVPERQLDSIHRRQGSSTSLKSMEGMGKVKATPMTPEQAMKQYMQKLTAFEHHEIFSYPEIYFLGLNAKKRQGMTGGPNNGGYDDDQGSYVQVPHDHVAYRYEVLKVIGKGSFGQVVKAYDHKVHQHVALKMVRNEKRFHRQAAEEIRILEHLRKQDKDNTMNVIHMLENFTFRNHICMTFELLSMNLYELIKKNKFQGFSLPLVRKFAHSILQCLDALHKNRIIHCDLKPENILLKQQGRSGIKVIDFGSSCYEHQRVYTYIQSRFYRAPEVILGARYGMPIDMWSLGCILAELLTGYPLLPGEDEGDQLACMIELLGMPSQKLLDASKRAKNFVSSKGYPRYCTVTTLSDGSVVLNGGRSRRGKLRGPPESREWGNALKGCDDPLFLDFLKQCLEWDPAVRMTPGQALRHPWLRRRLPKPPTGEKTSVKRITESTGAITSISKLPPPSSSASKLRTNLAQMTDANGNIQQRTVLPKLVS
Sequence of JNK1 (P45983 whole entry): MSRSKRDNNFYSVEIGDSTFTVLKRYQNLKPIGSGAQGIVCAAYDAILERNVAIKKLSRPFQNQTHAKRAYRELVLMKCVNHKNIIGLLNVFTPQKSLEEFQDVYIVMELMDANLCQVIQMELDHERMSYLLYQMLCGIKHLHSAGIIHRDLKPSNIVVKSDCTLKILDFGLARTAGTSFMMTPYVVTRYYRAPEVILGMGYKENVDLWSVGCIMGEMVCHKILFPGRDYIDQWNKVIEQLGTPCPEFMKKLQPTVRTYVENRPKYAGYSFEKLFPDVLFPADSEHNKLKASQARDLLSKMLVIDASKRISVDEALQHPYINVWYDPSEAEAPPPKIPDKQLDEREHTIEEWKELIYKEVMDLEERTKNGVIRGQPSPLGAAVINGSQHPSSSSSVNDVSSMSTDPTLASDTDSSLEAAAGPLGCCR
Sequence of EPH-A2 (P29317 24-976): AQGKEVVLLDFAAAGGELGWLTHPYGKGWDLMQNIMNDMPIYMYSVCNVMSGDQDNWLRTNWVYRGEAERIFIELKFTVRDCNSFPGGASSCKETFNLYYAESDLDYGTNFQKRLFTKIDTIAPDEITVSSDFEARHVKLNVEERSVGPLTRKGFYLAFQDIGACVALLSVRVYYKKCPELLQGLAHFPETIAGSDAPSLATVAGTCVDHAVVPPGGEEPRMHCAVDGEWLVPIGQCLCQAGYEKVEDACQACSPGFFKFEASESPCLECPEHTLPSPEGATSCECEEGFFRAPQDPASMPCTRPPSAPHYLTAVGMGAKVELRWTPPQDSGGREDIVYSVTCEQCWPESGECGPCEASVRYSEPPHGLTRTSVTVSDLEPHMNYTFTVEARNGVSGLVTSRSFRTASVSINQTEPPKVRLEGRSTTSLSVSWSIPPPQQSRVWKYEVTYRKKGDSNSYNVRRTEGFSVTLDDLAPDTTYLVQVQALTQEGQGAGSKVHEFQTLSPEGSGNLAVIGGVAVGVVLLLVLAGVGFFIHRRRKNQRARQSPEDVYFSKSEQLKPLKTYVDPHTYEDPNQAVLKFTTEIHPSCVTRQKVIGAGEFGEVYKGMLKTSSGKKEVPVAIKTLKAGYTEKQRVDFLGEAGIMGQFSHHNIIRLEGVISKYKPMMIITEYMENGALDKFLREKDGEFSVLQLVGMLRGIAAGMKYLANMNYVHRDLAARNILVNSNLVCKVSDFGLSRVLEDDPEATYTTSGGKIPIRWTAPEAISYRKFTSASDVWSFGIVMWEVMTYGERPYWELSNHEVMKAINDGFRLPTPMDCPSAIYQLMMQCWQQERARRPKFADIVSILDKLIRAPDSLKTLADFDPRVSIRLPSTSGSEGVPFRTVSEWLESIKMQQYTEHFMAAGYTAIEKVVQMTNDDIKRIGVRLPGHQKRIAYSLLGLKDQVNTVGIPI
Sequence of EIF2AK3 (Q9NZJ5 30-1116): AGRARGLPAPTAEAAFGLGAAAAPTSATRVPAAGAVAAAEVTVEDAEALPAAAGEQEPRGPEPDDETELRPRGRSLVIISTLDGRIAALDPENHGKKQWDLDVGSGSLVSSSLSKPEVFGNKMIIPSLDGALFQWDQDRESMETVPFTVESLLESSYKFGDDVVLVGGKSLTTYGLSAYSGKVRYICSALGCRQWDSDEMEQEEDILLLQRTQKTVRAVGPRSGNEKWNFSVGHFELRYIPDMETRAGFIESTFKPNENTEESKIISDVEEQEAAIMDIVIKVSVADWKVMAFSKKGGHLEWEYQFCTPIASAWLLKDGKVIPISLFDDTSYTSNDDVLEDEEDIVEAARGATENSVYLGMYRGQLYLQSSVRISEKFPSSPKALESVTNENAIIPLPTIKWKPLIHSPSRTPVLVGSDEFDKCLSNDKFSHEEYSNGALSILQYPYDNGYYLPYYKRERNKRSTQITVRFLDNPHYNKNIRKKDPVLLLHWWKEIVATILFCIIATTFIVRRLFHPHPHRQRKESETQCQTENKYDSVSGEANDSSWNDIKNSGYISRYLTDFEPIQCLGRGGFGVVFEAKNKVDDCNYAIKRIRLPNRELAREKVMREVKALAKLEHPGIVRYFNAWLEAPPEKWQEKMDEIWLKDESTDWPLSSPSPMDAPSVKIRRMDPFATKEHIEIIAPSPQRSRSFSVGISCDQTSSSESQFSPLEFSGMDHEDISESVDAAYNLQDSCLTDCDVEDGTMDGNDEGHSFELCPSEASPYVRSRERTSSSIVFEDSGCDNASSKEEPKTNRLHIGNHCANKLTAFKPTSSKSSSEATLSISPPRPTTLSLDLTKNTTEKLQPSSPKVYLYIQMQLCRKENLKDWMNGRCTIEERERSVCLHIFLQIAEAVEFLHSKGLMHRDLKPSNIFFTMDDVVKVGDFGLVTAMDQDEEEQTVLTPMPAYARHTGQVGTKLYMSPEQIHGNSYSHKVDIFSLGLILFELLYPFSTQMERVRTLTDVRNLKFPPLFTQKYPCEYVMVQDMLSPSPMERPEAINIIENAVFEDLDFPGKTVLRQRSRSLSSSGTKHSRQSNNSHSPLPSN
Sequence of JNK3 (P53779 whole entry): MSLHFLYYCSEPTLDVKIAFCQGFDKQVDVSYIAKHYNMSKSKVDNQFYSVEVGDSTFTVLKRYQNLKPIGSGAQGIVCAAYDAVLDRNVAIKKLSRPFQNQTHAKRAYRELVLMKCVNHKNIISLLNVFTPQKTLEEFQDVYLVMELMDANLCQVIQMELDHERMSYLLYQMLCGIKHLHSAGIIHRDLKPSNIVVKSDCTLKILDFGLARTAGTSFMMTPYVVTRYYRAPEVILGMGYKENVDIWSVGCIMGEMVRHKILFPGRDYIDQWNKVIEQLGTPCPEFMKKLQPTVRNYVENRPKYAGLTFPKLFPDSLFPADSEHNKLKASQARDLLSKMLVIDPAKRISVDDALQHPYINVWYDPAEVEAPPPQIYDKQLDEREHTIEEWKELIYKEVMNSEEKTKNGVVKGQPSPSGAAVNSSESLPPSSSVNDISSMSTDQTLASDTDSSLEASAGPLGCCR
Sequence of LKB1 (Q15831 whole entry): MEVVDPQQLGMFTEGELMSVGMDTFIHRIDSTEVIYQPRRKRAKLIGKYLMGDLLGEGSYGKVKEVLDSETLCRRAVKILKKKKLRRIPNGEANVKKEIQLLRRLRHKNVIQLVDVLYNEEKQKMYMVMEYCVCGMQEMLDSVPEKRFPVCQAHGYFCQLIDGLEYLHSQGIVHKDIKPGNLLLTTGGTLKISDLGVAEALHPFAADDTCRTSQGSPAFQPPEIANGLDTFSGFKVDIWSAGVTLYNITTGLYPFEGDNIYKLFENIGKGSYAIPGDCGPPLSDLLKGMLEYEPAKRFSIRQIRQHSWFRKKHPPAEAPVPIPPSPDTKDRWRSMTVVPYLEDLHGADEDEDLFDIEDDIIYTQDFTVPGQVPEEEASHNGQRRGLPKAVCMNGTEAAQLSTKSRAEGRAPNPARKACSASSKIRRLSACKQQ
Sequence of LKB1 (Q7RTN6 whole entry partner): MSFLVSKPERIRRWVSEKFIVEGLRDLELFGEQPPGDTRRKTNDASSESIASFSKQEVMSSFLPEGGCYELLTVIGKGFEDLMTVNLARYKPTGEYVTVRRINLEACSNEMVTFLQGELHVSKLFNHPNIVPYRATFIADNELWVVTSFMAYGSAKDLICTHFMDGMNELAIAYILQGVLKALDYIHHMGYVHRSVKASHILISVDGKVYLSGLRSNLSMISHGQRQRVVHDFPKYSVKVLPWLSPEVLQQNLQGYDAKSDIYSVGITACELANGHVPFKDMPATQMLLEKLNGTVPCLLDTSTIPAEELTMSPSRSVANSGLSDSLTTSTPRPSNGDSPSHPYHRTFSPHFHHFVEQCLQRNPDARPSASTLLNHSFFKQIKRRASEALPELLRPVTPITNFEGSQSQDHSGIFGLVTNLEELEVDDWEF
Sequence of LKB1 (Q9Y376 whole entry partner): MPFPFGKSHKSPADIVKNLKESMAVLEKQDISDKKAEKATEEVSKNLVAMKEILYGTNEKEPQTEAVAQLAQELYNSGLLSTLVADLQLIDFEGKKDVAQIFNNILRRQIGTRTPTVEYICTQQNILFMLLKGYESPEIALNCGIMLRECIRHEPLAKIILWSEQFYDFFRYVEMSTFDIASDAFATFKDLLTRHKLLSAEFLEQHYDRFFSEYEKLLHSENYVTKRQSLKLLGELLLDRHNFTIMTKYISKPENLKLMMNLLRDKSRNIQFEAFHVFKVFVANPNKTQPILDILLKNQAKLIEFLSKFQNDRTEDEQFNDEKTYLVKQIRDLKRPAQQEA

Take `C=CS(=O)(=O)c1ccc(Nc2nc(OCC3CCCCC3)c3nc[nH]c3n2)cc1` [NU6300, 6-(cyclohexylmethoxy)-N-(4-(vinylsulfonyl)phenyl)-9H-purin-2-amine]: the remaining activity at 1 µM in [1] was 38%; in assay [2], 83%; in [3], 91%; in assay [4], 89%; in assay [5] it was 18%; in assay [6], 47%. In addition, the remaining activity at 1 µM in assay [7] was determined as 37%; in [8], 83%; in assay [9] it was 96%; in [10] it was 59%; in assay [11], 60%; in assay [12] it was 78%.

Values taken from publication PMC4579270, “Identification and Characterization of an Irreversible Inhibitor of CDK2” (Chemistry & Biology, 2015).
